Measurements as given in US7863449B2, “Modulators of muscarinic receptors” (Vertex Pharmaceuticals Incorporated, priority 2004, dated 2011).

Tests used:
M1 muscarinic receptor = molecular target: T1, M1 muscarinic receptor (Homo sapiens, UniProt P11229); assay: Functional mobilization of intracellular calcium (FLIPR), M1-CHO cells; format: cell-based; settings: for Emax: 100% efficacy is the maximum response obtained using Carbachol as a control; for M1 Activity: M1-CHO cells, FLIPR calcium mobilization
T1 construct: expressed in transfected cells; host or cells: CHO (M1-CHO)
T1 sequence (P11229 1-460): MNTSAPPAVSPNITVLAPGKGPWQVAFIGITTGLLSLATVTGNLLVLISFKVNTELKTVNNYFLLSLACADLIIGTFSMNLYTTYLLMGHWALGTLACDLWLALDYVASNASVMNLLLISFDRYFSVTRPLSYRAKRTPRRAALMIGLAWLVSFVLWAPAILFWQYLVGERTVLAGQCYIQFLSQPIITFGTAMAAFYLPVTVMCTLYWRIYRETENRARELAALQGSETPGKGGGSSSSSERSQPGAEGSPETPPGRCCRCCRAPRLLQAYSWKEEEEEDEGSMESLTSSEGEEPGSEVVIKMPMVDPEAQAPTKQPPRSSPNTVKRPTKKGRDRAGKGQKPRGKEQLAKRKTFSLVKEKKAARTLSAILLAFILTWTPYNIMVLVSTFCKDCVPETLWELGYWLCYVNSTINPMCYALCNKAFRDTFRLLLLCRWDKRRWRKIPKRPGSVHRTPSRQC
How it was run: (§1)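 Calcium flux recorded 60 s (ex 488, em 540 nm) in dye-loaded M1- or M4-CHO cells in pH 7.4 buffer with 1 mM probenecid. Inhibition measured against carbachol EC80 after 15 min compound pre-incubation or co-addition; agonism measured by compound addition alone. Final DMSO 0.5%.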

M4 muscarinic receptor = molecular target: T2, M4 muscarinic receptor (Homo sapiens, UniProt P08173); assay: Functional mobilization of intracellular calcium (FLIPR), M4-CHO cells; format: cell-based; settings: for Emax: 100% efficacy is the maximum response obtained using Carbachol as a control; for M4 Activity: M4-CHO cells, FLIPR calcium mobilization
T2 construct: expressed in transfected cells; host or cells: CHO (M4-CHO)
T2 sequence (P08173 1-479): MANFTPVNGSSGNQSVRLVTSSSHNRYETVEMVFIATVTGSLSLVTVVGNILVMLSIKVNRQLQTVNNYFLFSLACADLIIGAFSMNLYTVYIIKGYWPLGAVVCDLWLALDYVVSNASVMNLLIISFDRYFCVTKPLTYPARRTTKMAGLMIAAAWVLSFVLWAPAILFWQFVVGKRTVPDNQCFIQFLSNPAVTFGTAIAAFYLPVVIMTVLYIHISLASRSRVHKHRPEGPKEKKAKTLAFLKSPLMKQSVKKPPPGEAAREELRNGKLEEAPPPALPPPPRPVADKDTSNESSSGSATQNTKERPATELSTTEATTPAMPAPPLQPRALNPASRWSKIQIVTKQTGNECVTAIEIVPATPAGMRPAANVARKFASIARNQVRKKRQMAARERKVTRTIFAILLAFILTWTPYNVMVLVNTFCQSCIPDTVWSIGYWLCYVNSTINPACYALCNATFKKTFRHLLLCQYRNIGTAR
How it was run: as §1

Which Emax (M1 muscarinic receptor) does the source give for `CCOC(=O)N1CCC(CN2CCC3(CC2)CN(C(=O)c2cc4ccccc4s2)Cc2ccccc23)CC1` [compound 80] here?
Its Emax is 25 to 100%.

What about the “M1 Activity” value (M1 muscarinic receptor) of the same compound?
The value was “+++ (activity was measured to be less than 1.0 μM)”.

What about the Emax (M4 muscarinic receptor) of the same compound?
The Emax was 25 to 100%.

And the “M4 Activity” value (M4 muscarinic receptor)?
The value was “+++ (activity was measured to be less than 1.0 μM)”.

With `CSC(C)CCN1CCC2(CC1)NC(=O)c1ccccc12` (centres unmarked) [compound 323] as the compound, how does the Emax (M1 muscarinic receptor) read?
The Emax was under 25%.

And the “M1 Activity” value (M1 muscarinic receptor)?
The value was “+ (activity was measured to be greater than 5.0 μM)”.

And the Emax (M4 muscarinic receptor)?
The Emax was under 25%.

And the “M4 Activity” value (M4 muscarinic receptor)?
Its value is “+ (activity was measured to be greater than 5.0 μM)”.

With `COCCOC(=O)N1Cc2ccccc2C2(CCN(C3CC4CCC(C3)N4C(=O)OCCOC)CC2)C1` (centres unmarked) [compound 96] as the compound, how does the Emax (M1 muscarinic receptor) read?
The Emax was 25 to 100%.

And the “M1 Activity” value (M1 muscarinic receptor)?
The value was “+++ (activity was measured to be less than 1.0 μM)”.

What about the Emax (M4 muscarinic receptor) of the same compound?
The Emax was 25 to 100%.

And the “M4 Activity” value (M4 muscarinic receptor)?
Its value is “+++ (activity was measured to be less than 1.0 μM)”.

Which Emax (M1 muscarinic receptor) does the source give for `CCOC(=O)N1CCC(CN2CCC3(CC2)CN(C(=O)OCC)Cc2ccccc23)CC1` [compound 11] here?
The Emax was 25 to 100%.

What about the “M1 Activity” value (M1 muscarinic receptor) of the same compound?
The value was “+++ (activity was measured to be less than 1.0 μM)”.

And the Emax (M4 muscarinic receptor)?
Its Emax is 25 to 100%.

And the “M4 Activity” value (M4 muscarinic receptor)?
The value was “+++ (activity was measured to be less than 1.0 μM)”.

Which results are given for `CCOC(=O)N1C2CCC1CC(N1CCC3(CC1)CN(C(=O)C1(C(F)(F)F)CC1)Cc1ccccc13)C2` (centres unmarked) [compound 64]?
Emax (M1 muscarinic receptor): 25 to 100%; M1 Activity (M1 muscarinic receptor): +++ (activity was measured to be less than 1.0 μM); Emax (M4 muscarinic receptor): 25 to 100%; M4 Activity (M4 muscarinic receptor): +++ (activity was measured to be less than 1.0 μM)

What does the source list for `CCOC(=O)N1C2CCC1CC(N1CCC3(CC1)CN(C(=O)c1cc(C)n(C)n1)Cc1ccccc13)C2` (centres unmarked) [compound 219]?
Emax (M1 muscarinic receptor): 25 to 100%; M1 Activity (M1 muscarinic receptor): +++ (activity was measured to be less than 1.0 μM); Emax (M4 muscarinic receptor): 25 to 100%; M4 Activity (M4 muscarinic receptor): +++ (activity was measured to be less than 1.0 μM)

Which results are given for `CCOC(=O)N1C2CCC1CC(N1CCC3(CC1)CN(C(=O)c1ccc(F)cc1)Cc1ccccc13)C2` (centres unmarked) [compound 71]?
Emax (M1 muscarinic receptor): 25 to 100%; M1 Activity (M1 muscarinic receptor): +++ (activity was measured to be less than 1.0 μM); Emax (M4 muscarinic receptor): < 25%; M4 Activity (M4 muscarinic receptor): + (activity was measured to be greater than 5.0 μM)

`CC(=O)N1Cc2ccccc2C2(CCN(CC3CCN(C(=O)O[C@@H]4CCOC4)CC3)CC2)C1` [compound 45] was tested. Which Emax (M1 muscarinic receptor) did it give?
Its Emax is under 25%.

And the “M1 Activity” value (M1 muscarinic receptor)?
The value was “+ (activity was measured to be greater than 5.0 μM)”.

And the Emax (M4 muscarinic receptor)?
Its Emax is under 25%.

What about the “M4 Activity” value (M4 muscarinic receptor) of the same compound?
The value was “+ (activity was measured to be greater than 5.0 μM)”.

Which Emax (M1 muscarinic receptor) does the source give for `CCOC(=O)N1C2CCC1CC(N1CCC3(CC1)CN(S(C)(=O)=O)Cc1ccccc13)C2` (centres unmarked) [compound 201] here?
The Emax was 25 to 100%.

And the “M1 Activity” value (M1 muscarinic receptor)?
The value was “+++ (activity was measured to be less than 1.0 μM)”.

And the Emax (M4 muscarinic receptor)?
The Emax was 25 to 100%.

And the “M4 Activity” value (M4 muscarinic receptor)?
Its value is “+++ (activity was measured to be less than 1.0 μM)”.

For `CC(=O)N1Cc2ccccc2C2(CCN(C3CCN(C(=O)OC4CCC4)CC3)CC2)C1` [compound 258], which Emax (M1 muscarinic receptor) is on record?
The Emax was 25 to 100%.

And the “M1 Activity” value (M1 muscarinic receptor)?
The value was “+++ (activity was measured to be less than 1.0 μM)”.

What about the Emax (M4 muscarinic receptor) of the same compound?
Its Emax is 25 to 100%.

And the “M4 Activity” value (M4 muscarinic receptor)?
The value was “+++ (activity was measured to be less than 1.0 μM)”.

How did the Emax (M1 muscarinic receptor) turn out when `CCOC(=O)N1CCC(CN2CCC3(CC2)CN(C(=O)c2cnon2)Cc2ccccc23)CC1` [compound 329] was run?
Its Emax is 25 to 100%.

What about the “M1 Activity” value (M1 muscarinic receptor) of the same compound?
Its value is “+++ (activity was measured to be less than 1.0 μM)”.

And the Emax (M4 muscarinic receptor)?
The Emax was 25 to 100%.

What about the “M4 Activity” value (M4 muscarinic receptor) of the same compound?
The value was “+++ (activity was measured to be less than 1.0 μM)”.

Which Emax (M1 muscarinic receptor) does the source give for `O=C1c2ccccc2C2(CCN(C3CCCCCC3)CC2)N1Cc1ccccc1` [compound 347] here?
The Emax was 25 to 100%.

What about the “M1 Activity” value (M1 muscarinic receptor) of the same compound?
The value was “+ (activity was measured to be greater than 5.0 μM)”.

What about the Emax (M4 muscarinic receptor) of the same compound?
The Emax was under 25%.

And the “M4 Activity” value (M4 muscarinic receptor)?
The value was “+ (activity was measured to be greater than 5.0 μM)”.

For `CCOC(=O)N1C2CCC1CC(N1CCC3(CC1)CN(c1cccc(F)c1)Cc1ccccc13)C2` (centres unmarked) [compound 159], which Emax (M1 muscarinic receptor) is on record?
Its Emax is over 100%.

What about the “M1 Activity” value (M1 muscarinic receptor) of the same compound?
The value was “+++ (activity was measured to be less than 1.0 μM)”.

And the Emax (M4 muscarinic receptor)?
The Emax was 25 to 100%.

And the “M4 Activity” value (M4 muscarinic receptor)?
The value was “+++ (activity was measured to be less than 1.0 μM)”.

What does the source list for `CCOC(=O)N1CCC(N2CCC3(CC2)CN(C(=O)NC(C)(C)C)Cc2ccccc23)CC1` [compound 53]?
Emax (M1 muscarinic receptor): 25 to 100%; M1 Activity (M1 muscarinic receptor): +++ (activity was measured to be less than 1.0 μM); Emax (M4 muscarinic receptor): 25 to 100%; M4 Activity (M4 muscarinic receptor): +++ (activity was measured to be less than 1.0 μM)

How did the Emax (M1 muscarinic receptor) turn out when `CCOC(=O)N1CCC(N2CCC3(CC2)CN(C(=O)Nc2ccccc2)Cc2ccccc23)CC1` [compound 16] was run?
The Emax was 25 to 100%.

What about the “M1 Activity” value (M1 muscarinic receptor) of the same compound?
Its value is “+++ (activity was measured to be less than 1.0 μM)”.

What about the Emax (M4 muscarinic receptor) of the same compound?
Its Emax is 25 to 100%.

And the “M4 Activity” value (M4 muscarinic receptor)?
The value was “+++ (activity was measured to be less than 1.0 μM)”.

What does the source list for `CCOC(=O)N1CC[C@H](CN2CCC3(CC2)CN(C(C)=O)Cc2ccccc23)C1` [compound 320]?
Emax (M1 muscarinic receptor): 25 to 100%; M1 Activity (M1 muscarinic receptor): +++ (activity was measured to be less than 1.0 μM); Emax (M4 muscarinic receptor): 25 to 100%; M4 Activity (M4 muscarinic receptor): +++ (activity was measured to be less than 1.0 μM)

How did the Emax (M1 muscarinic receptor) turn out when `CC(=O)c1ccc(CN2CCC3(CC2)CN(C(C)=O)Cc2ccccc23)cc1` [compound 144] was run?
The Emax was 25 to 100%.

And the “M1 Activity” value (M1 muscarinic receptor)?
The value was “+ (activity was measured to be greater than 5.0 μM)”.

What about the Emax (M4 muscarinic receptor) of the same compound?
The Emax was under 25%.

What about the “M4 Activity” value (M4 muscarinic receptor) of the same compound?
The value was “+ (activity was measured to be greater than 5.0 μM)”.

Which results are given for `CCCNC(=O)N1Cc2ccccc2C2(CCN(C3CCN(C(=O)OCC)CC3)CC2)C1` [compound 296]?
Emax (M1 muscarinic receptor): 25 to 100%; M1 Activity (M1 muscarinic receptor): +++ (activity was measured to be less than 1.0 μM); Emax (M4 muscarinic receptor): 25 to 100%; M4 Activity (M4 muscarinic receptor): +++ (activity was measured to be less than 1.0 μM)

Which Emax (M1 muscarinic receptor) does the source give for `CCCS(=O)(=O)N1Cc2ccccc2C2(CCN(C3CC4CCC(C3)N4C(=O)OC3CCC3)CC2)C1` (centres unmarked) [compound 119] here?
Its Emax is 25 to 100%.

And the “M1 Activity” value (M1 muscarinic receptor)?
The value was “+++ (activity was measured to be less than 1.0 μM)”.

And the Emax (M4 muscarinic receptor)?
Its Emax is 25 to 100%.

What about the “M4 Activity” value (M4 muscarinic receptor) of the same compound?
Its value is “+++ (activity was measured to be less than 1.0 μM)”.

Which results are given for `CC(=O)N1Cc2ccccc2C2(CCN(C3CCN(C(=O)OC(C)(C)C)CC3)CC2)C1` [compound 177]?
Emax (M1 muscarinic receptor): 25 to 100%; M1 Activity (M1 muscarinic receptor): +++ (activity was measured to be less than 1.0 μM); Emax (M4 muscarinic receptor): < 25%; M4 Activity (M4 muscarinic receptor): + (activity was measured to be greater than 5.0 μM)
